Data from patent US10626115B2, “Fused pyrimidinone and triazinone derivatives containing bridged nitrogen, their process of preparation and their therapeutic uses as antifungal and/or antiparasitic agents” (UNIVERSITE DE NANTES, priority 2015, dated 2020).
In brackets after ≈: the same amount, converted by molar mass. Like-named read-outs stand apart in the source and are kept apart here.

How the values were obtained:
[1] = test system: A. fumigatus susceptible strain ASFU76; assay: Antifungal susceptibility, spectrofluorimetric microdilution, ASFU76; format: cell-based, Aspergillus fumigatus; details: for MIC: Aspergillus fumigatus, read-out: MIC values ASFU76
Protocol: (§1) Eleven strains of A. fumigatus with various itraconazole susceptibility were used: • Five susceptible strains: ASFU7, ASFU35A, ASFU38A, ASFU76 and ASFU78. • Six itraconazole-resistant strains: ASFU77 (erg11 mutation), ASFU13, ASFU17, ASFU19, ASFU20, ASFU23.
(§2) Antifungal susceptibility was evaluated with a spectrofluorimetric microdilution method. MIC was the concentration that was able to inhibit 80% of fluorescence measured in the control wells.

[2] = test system: A. fumigatus susceptible strain ASFU35A; assay: Antifungal susceptibility, spectrofluorimetric microdilution, ASFU35A; format: cell-based, Aspergillus fumigatus; details: for MIC: Aspergillus fumigatus, read-out: MIC values ASFU35A
Protocol: as §1, §2

[3] = test system: A. fumigatus susceptible strain ASFU38A; assay: Antifungal susceptibility, spectrofluorimetric microdilution, ASFU38A; format: cell-based, Aspergillus fumigatus; details: for MIC: Aspergillus fumigatus, read-out: MIC values ASFU38A
Protocol: as §1, §2

[4] = test system: A. fumigatus susceptible strain ASFU7; assay: Antifungal susceptibility, spectrofluorimetric microdilution, ASFU7; format: cell-based, Aspergillus fumigatus; details: for MIC: Aspergillus fumigatus, read-out: MIC values ASFU7
Protocol: as §1, §2

[5] = test system: A. fumigatus susceptible strain ASFU78; assay: Antifungal susceptibility, spectrofluorimetric microdilution, ASFU78; format: cell-based, Aspergillus fumigatus; details: for MIC: Aspergillus fumigatus, read-out: MIC values ASFU78
Protocol: as §1, §2

[6] = test system: A. fumigatus itraconazole-resistant strain ASFU13; assay: Antifungal susceptibility, spectrofluorimetric microdilution, ASFU13; format: cell-based, Aspergillus fumigatus; details: for MIC: Aspergillus fumigatus, read-out: MIC values ASFU13
Protocol: as §1, §2

[7] = test system: A. fumigatus itraconazole-resistant strain ASFU17; assay: Antifungal susceptibility, spectrofluorimetric microdilution, ASFU17; format: cell-based, Aspergillus fumigatus; details: for MIC: Aspergillus fumigatus, read-out: MIC values ASFU17
Protocol: as §1, §2

[8] = test system: A. fumigatus itraconazole-resistant strain ASFU19; assay: Antifungal susceptibility, spectrofluorimetric microdilution, ASFU19; format: cell-based, Aspergillus fumigatus; details: for MIC: Aspergillus fumigatus, read-out: MIC values ASFU19
Protocol: as §1, §2

[9] = test system: A. fumigatus itraconazole-resistant strain ASFU77 (erg11 mutation); assay: Antifungal susceptibility, spectrofluorimetric microdilution, ASFU77; format: cell-based, Aspergillus fumigatus; details: for MIC: Aspergillus fumigatus, read-out: MIC values ASFU77
Protocol: as §1, §2

[10] = test system: A. fumigatus itraconazole-resistant strain ASFU20; assay: Antifungal susceptibility, spectrofluorimetric microdilution, ASFU20; format: cell-based, Aspergillus fumigatus; details: for MIC: Aspergillus fumigatus, read-out: MIC values ASFU20
Protocol: as §1, §2

[11] = test system: A. fumigatus itraconazole-resistant strain ASFU23; assay: Antifungal susceptibility, spectrofluorimetric microdilution, ASFU23; format: cell-based, Aspergillus fumigatus; details: for MIC: Aspergillus fumigatus, read-out: MIC values ASFU23
Protocol: as §1, §2

[12] = test system: Aspergillus fumigatus (ASFU7) spores; assay: Murine invasive aspergillosis; format: in vivo; details: neutropenic Swiss mice, ASFU7 spores i.v., 10 mg/kg per os once a day for 5 days
Protocol: Transiently neutropenic female Swiss mice were used for experiments on systemic candidiasis and invasive aspergillosis.
Mice were inoculated intravenously with Aspergillus fumigatus (ASFU7) spores.
Treatment was administrated once a day (10 mg/kg per os) for 5 days. […] Fungal burden of the kidney was evaluated in dead animals during the experimentation or in animals sacrificed at the end of the experimentation.

[13] = test system: promastigote stage of a Leishmania mexicana strain; assay: Anti-Trypanosomatidae activity, promastigote stage, spectrofluorimetric microdilution; format: cell-based; details: promastigote stage; 50% of control growth; read-out: L. mexicana (IC50 μM)
Protocol: Compounds were evaluated on the promastigote stage of a Leishmania mexicana strain using a spectrofluorimetric microdilution method. Inhibitory concentration 50 (IC50) was the concentration that inhibited 50% of the control growth.

[14] = test system: fluconazole-susceptible C. albicans strain: CAAL93; assay: Antifungal susceptibility, spectrofluorimetric microdilution, CAAL93; format: cell-based; details: Candida albicans, read-out: MIC values CAAL93
Protocol: (§3) Eight strains of Candida spp. with various azoles-susceptibilities were used: • One fluconazole-susceptible C. albicans strain: CAAL93 • Two fluconazole-resistant C. albicans strains: CAAL111 (efflux pump) and CAAL117 (erg11 mutations+voriconazole-resistant) • five fluconazole-resistant Candida non albicans strains: C. krusei (CAKR7, CAKR8), C. glabrata (CAGL2), C. parapsilosis s.l. (CAPA1, CAPA2).
(§4) Antifungal susceptibility was evaluated with a spectrofluorimetric microdilution method.

[15] = test system: fluconazole-resistant C. albicans strain CAAL111 (efflux pump); assay: microbe, parasite or virus in culture; format: cell-based; details: Candida albicans, read-out: MIC values CAAL111
Protocol: as §3, §4

[16] = test system: fluconazole-resistant C. albicans strain CAAL117 (erg11 mutations+voriconazole-resistant); assay: microbe, parasite or virus in culture; format: cell-based; details: for MIC: Candida albicans, read-out: MIC values CAAL117
Protocol: as §3, §4

[17] = test system: fluconazole-resistant C. glabrata (CAGL2); assay: microbe, parasite or virus in culture; format: cell-based; details: Nakaseomyces glabratus, read-out: MIC values CAGL2
Protocol: as §3, §4

[18] = test system: fluconazole-resistant C. krusei (CAKR7); assay: microbe, parasite or virus in culture; format: cell-based; details: Pichia kudriavzevii, read-out: MIC values CAKR7
Protocol: as §3, §4

[19] = test system: fluconazole-resistant C. krusei (CAKR8); assay: microbe, parasite or virus in culture; format: cell-based; details: Pichia kudriavzevii, read-out: MIC values CAKR8
Protocol: as §3, §4

[20] = test system: fluconazole-resistant C. parapsilosis s.l. (CAPA1); assay: microbe, parasite or virus in culture; format: cell-based; details: Lodderomyces parapsilosis, read-out: MIC values CAPA1
Protocol: as §3, §4

[21] = test system: fluconazole-resistant C. parapsilosis s.l. (CAPA2); assay: microbe, parasite or virus in culture; format: cell-based; details: Lodderomyces parapsilosis, read-out: MIC values CAPA2
Protocol: as §3, §4

[22] = concentration inhibiting 80% of control fluorescence

SMILES: CCC(C)n1ncn(-c2ccc(N3CCN(c4ccc(OCC5COC(Cn6cncn6)(c6ccc(Cl)cc6Cl)O5)cc4)CC3)cc2)c1=O (stereo not shown) [ITRA, Itraconazole, reference compound]
- MIC values ASFU76 [1, 22]: 0.50 ± 0.24 µg/mL (≈ 0.709 µM)
- MIC values ASFU35A [2, 22]: 0.24 µg/mL (≈ 0.34 µM)
- MIC values ASFU38A [3, 22]: 0.52 µg/mL (≈ 0.737 µM)
- MIC values ASFU7 [4, 22]: 0.42 ± 0.04 µg/mL (≈ 0.595 µM)
- MIC values ASFU78 [5, 22]: 0.31 µg/mL (≈ 0.439 µM)
- MIC values ASFU13 [6, 22]: >70 µg/mL
- MIC values ASFU17 [7, 22]: >7 µg/mL
- MIC values ASFU19 [8, 22]: >7 µg/mL
- MIC values ASFU77 [9, 22]: >100 µg/mL
- MIC values ASFU20 [10, 22]: >7 µg/mL
- MIC values ASFU23 [11, 22]: >7 µg/mL
- survival ([12]; 14 days, p<0.01): did survive significantly longer
- fungal burden of the kidney ([12]; p<0.05): significantly reduced
- IC50 [13]: 2.5 ± 0.7 µM

SMILES: C[C@@H](n1ncc2cc(-c3ccc([N+](=O)[O-])cc3)cn2c1=O)[C@](O)(Cn1cncn1)c1ccc(F)cc1F [Compound 50, 3-[(1R,2R)-2-(2,4-Difluorophenyl)-2-hydroxy-1-methyl-3-(1,2,4-triazol-1-yl)propyl]-7-(4-nitrophenyl)-3H-pyrrolo[1,2-d][1,2,4]triazin-4-one]
- MIC [14]: < 0.001 µg/mL
- MIC [15]: 0.017 ± 0.007 µg/mL (≈ 0.0335 µM)
- MIC [16]: 0.018 ± 0.001 µg/mL (≈ 0.0355 µM)
- fold more active than voriconazole against CAAL117 ([16]; compared with voriconazole): 100 fold
- MIC [17]: 0.074 ± 0.038 µg/mL (≈ 0.146 µM)
- MIC [18]: 0.066 ± 0.009 µg/mL (≈ 0.13 µM)
- MIC [19]: 0.039 ± 0.027 µg/mL (≈ 0.0769 µM)
- MIC [1]: 8.23 ± 2.23 µg/mL (≈ 16.2 µM)
- MIC [2]: 6.59 ± 0.04 µg/mL (≈ 13 µM)
- MIC [3]: 8.86 µg/mL (≈ 17.5 µM)
- MIC [4]: 8.31 ± 0.52 µg/mL (≈ 16.4 µM)
- MIC [5]: 6.4 ± 1.07 µg/mL (≈ 12.6 µM)
- MIC [6]: 3.08 µg/mL (≈ 6.07 µM)
- MIC [7]: > 50 µg/mL
- MIC [8]: > 50 µg/mL
- MIC [9]: > 100 µg/mL
- MIC [10]: 21.3 µg/mL (≈ 42 µM)
- MIC [11]: 43 µg/mL (≈ 84.7 µM)
- melting point: 130 to 131 °C

SMILES: C[C@@H](c1ncncc1F)[C@](O)(Cn1cncn1)c1ccc(F)cc1F [VOR, voriconazole, reference compound]
- MIC ([14]; concentration inhibiting 50% of control fluorescence): 0.005 ± 0.001 µg/mL (≈ 0.0143 µM)
- MIC [15]: 0.458 ± 0.196 µg/mL (≈ 1.31 µM)
- MIC [16]: 1.1 ± 0.1 µg/mL (≈ 3.15 µM)
- MIC [17]: 0.126 ± 0.003 µg/mL (≈ 0.361 µM)
- MIC [18]: 0.817 ± 0.007 µg/mL (≈ 2.34 µM)
- MIC [19]: 0.24 ± 0.07 µg/mL (≈ 0.687 µM)
- MIC [20]: 0.95 ± 0.13 µg/mL (≈ 2.72 µM)
- MIC [21]: 0.36 ± 0.001 µg/mL (≈ 1.03 µM)
- MIC [1, 22]: 0.64 ± 0.01 µg/mL (≈ 1.83 µM)
- MIC [2, 22]: 0.6 ± 0.08 µg/mL (≈ 1.72 µM)
- MIC [3, 22]: 0.75 ± 0.2 µg/mL (≈ 2.15 µM)
- MIC [4, 22]: 0.15 ± 0.001 µg/mL (≈ 0.429 µM)
- MIC [5, 22]: 0.59 ± 0.01 µg/mL (≈ 1.69 µM)
- MIC [6]: 0.136 µg/mL (≈ 0.389 µM)
- MIC [7]: 1.19 µg/mL (≈ 3.39 µM)
- MIC [8]: 1.86 µg/mL (≈ 5.33 µM)
- MIC [9]: 0.61 ± 0.04 µg/mL (≈ 1.75 µM)
- MIC [10]: 0.178 µg/mL (≈ 0.51 µM)
- MIC [11]: 0.097 µg/mL (≈ 0.278 µM)
